Test system: normal ernährte Kaninchen
Test: Blood sugar lowering in normally fed rabbits after oral administration (autoanalyzer)
Assay type: in vivo
Experimental: Die blutzuckersenkende Wirkung der beschriebenen Benzolsulfonylsemicarbazide kann dadurch festgestellt werden, daß man sie als freie Verbindung oder in Form der Natriumsalze an normal ernährte Kaninchen verfüttert und den Blutzuckerwert nach der bekannten Methode von Hagedorn-Jensen oder mit einem Autoanalyzer über eine längere Zeitdauer ermittelt.
Die routinemäßige Bestimmung der blutzuckersenkenden Wirkung kann mit Dosierungen von z.B. 10,2 oder 0,4 mg Wirksubstanz pro kg Versuchstier nach bekannten Methoden erfolgen.
4-(4-<2-(1-Oxo-isoindolin-2-carboxamido)-äthyl> -benzolsulfonyl)-1,1-hexamethylen-semicarbazid wurde in einer Dosierung von 0,4 mg/kg Kaninchen verabreicht und die Blutzuckerwerte wurden mit einem Autoanalyzer über eine längere Zeitdauer ermittelt. Die hierbei gemessene Blutzuckersenkung ist in der nachfolgenden Tabelle in % nach.... Stunden angegeben. In der Tabelle ist ferner die Blutzuckersenkung in % angegeben, die nach p.o. Verabreichung von 0,08 mg/kg Kaninchen beobachtet wurde.

Structure (SMILES): O=C(NN1CCCCCC1)NS(=O)(=O)c1ccc(CCNC(=O)N2Cc3ccccc3C2=O)cc1 [4-(4-<2-(1-Oxo-isoindolin-2-carboxamido)-äthyl> -benzolsulfonyl)-1,1-hexamethylen-semicarbazid]
- Blutzuckersenkung an Kaninchen in % (0,4 mg/kg p.o., after 1 hour): 26%
- Blutzuckersenkung an Kaninchen in % (0,4 mg/kg p.o., after 3 hours): 31%
- Blutzuckersenkung an Kaninchen in % (0,4 mg/kg p.o., after 5 hours): 43%
- Blutzuckersenkung an Kaninchen in % (0,4 mg/kg p.o., after 24 hours): 37%
- Blutzuckersenkung an Kaninchen in % (0,4 mg/kg p.o., after 48 hours): 0%
- Blutzuckersenkung an Kaninchen in % (0,08 mg/kg p.o., after 1 hour): 11%
- Blutzuckersenkung an Kaninchen in % (0,08 mg/kg p.o., after 3 hours): 22%
- Blutzuckersenkung an Kaninchen in % (0,08 mg/kg p.o., after 5 hours): 33%

From patent EP0023575A1, “Benzene sulfonyl semicarbazides, their preparation and use, pharmaceutical formulations containing them and their preparation” (HOECHST AKTIENGESELLSCHAFT, priority 1979, dated 1981)
